# Experimental data published in patent US9439424B2, “Synergistic weed control from applications of aminocyclopyrachlor and aminopyralid” (Dow AgroSciences LLC, priority 2012, dated 2016).
# Where “and” joins values, the source holds several entries; their conditions need not be identical. Equal entries are not always repeated.
# Tested on: kochia or mock cypress (Kochia scoparia, KCHSC)
# Assay: Field trial, post-emergence foliar application, weed control rating 0-100%
# Format: in vivo
# Excerpt: The (a) aminocyclopyrachlor or an agriculturally acceptable salt or ester thereof is mixed with or applied in combination with (b) aminopyralid or an agriculturally acceptable salt or ester thereof in an amount sufficient to induce a synergistic herbicidal effect. […] As described in the Herbicide Handbook of the Weed Science Society of America, Ninth Edition, 2007, p. 429, “‘synergism’ [is] an interaction of two or more factors such that the effect when combined is greater than the predicted effect based on the response to each factor applied separately.” Synergistic in the herbicide context can mean that the use of (a) and (b) as defined above results in an increased weed control effect compared to the weed control effects that are possible with the use of (a) or (b) alone. In some embodiments, the damage or injury to the undesired vegetation caused by the compositions and methods disclosed herein is evaluated using a scale from 0% to 100%, when compared with the untreated control vegetation, wherein 0% indicates no damage to the undesired vegetation and 100% indicates complete destruction of the undesired vegetation. […] 22 (1967)
# In the Colby equation, the value E corresponds to the effect (plant damage or injury) that is to be expected if the activity of the individual compounds is additive. If the observed effect is higher than the value E calculated according to the Colby equation, then a synergistic effect is present according to the Colby equation.
# Field trials were conducted with applications made to established grassland with naturally occurring weed populations. The target plants were treated with postemergence foliar applications when they were just emerged to the three-leaf stage and 0.6 centimeters (cm) (0.25 inches (in)) tall. All treatments were applied using a randomized complete block trial design, with 3 replications per treatment.
# Treatments consisted of aminocyclopyrachlor in acid form and aminopyralid-triisopropanolammonium, each in water and applied alone or in combination. Spray solutions were prepared using an appropriate amount of dilution to form a 1.7 L aqueous spray solution with active ingredients in single and two way combinations. Formulated compounds were applied to the plant material with a backpack sprayer equipped with 8002 nozzles calibrated to deliver 13.5 gallon/acre (127 L/ha) at a spray height of 18-20 in (43-50 cm) above average plant canopy.
# The treated plants were kochia or mock cypress (Kochia scoparia, KCHSC). The treated plots and control plots were rated blind at various intervals after application. Ratings were based on a scale of 0-100%, as discussed above, wherein 0% indicates no damage to the undesired vegetation and 100% indicates complete destruction of the undesired vegetation
# Colby's equation was used to determine the herbicidal effects expected from the mixtures, as described above. The results were measured at 93 days and 183 days after the first application of the compositions. […] The herbicide tank mix combinations tested, application rates and ratios employed, plant species tested, and results are given below.
Structure (SMILES),"Mean % weed control (aminocyclopyrachlor alone 140 g ae/ha, 93 days after application)","Mean % weed control (aminocyclopyrachlor alone 140 g ae/ha, 183 days after application) [%]","Mean % weed control (aminopyralid-triisopropanolammonium alone 70 g ae/ha, 93 days) [%]","Mean % weed control (aminopyralid-triisopropanolammonium alone 70 g ae/ha, 183 days) [%]","Mean % weed control (aminopyralid-triisopropanolammonium alone 120 g ae/ha, 93 days) [%]","Mean % weed control (aminopyralid-triisopropanolammonium alone 120 g ae/ha, 183 days) [%]"
"Nc1nc(C2CC2)nc(C(=O)O)c1Cl [Aminocyclopyrachlor, 6-amino-5-chloro-2-cyclopropylpyrimidine-4-carboxylic acid]",56.67% and 56.7%,45,,,,
"Nc1cc(Cl)nc(C(=O)O)c1Cl [Aminopyralid-triisopropanolammonium, aminopyralid-triisopropanolammonium]",,,30,16.67,20,13.3
